Results taken from patent US20210338779A1, “THERAPEUTIC USE OF GLUCAGON AND COMBINATION INCLUDING THE SAME” (HANMI PHARM. CO., LTD, priority 2018, published 2021).

Experiments:
Type in all cases: in vivo, Mouse
[1] = test system: Mice with high-fat-diet-induced obesity; experiment: Experimental Example 1: body weight, fat, HOMA-IR and blood glucose in mice with high-fat-diet-induced obesity; conditions: 28 days; long-acting glucagon derivative 1.2 nmol/kg once every 2 days; SAXENDA 50 nmol/kg twice a day; Sitagliptin 49.2 mg/kg once a day
Experimental: (§1) Mice with high-fat-diet-induced obesity, which have been widely used as obesity animal models, were used for this experiment. The body weights of the mice were in the range of about 50 g to 55 g. During this experiment, mice were housed 7 mice per each group and were given ad libitum access to water. Lights were turned off between 6 P.M. and 6 A. M.
(§2) Test groups fed with high-fat diet include: Group 1: administered with an excipient not including long-acting glucagon (5 mL/kg, injection once every 2 days)-control (Vehicle), Group 2: administered with a GLP-1 analog obesity drug (SAXENDA®, 50 nmol/kg, injection twice a day), Group 3: administered with the long-acting glucagon derivative (1.2 nmol/kg, injection once every 2 days), and Group 4: administered with a DPP-4 inhibitor (Sitagliptin, 49.2 mg/kg, injection once a day).
(§3) The experiment was terminated on the 28th day, and changes in body weight of the mice in each group were measured at 2-day intervals during the progress of the experiment, and changes in blood glucose level were measured before administration and at the 1st, 4th, 7th, 10th, 13th, 16th, 19th, 22nd, 25th, and 28th days after administration. Upon termination of the experiment, the weight of fat and HOMA-IR were measured.
(§4) Statistical analysis was performed by comparing the excipient group (control) with the test groups by 1-way ANOVA.

[2] = test system: Mice with high-fat-diet-induced obesity; experiment: Experimental Example 2: co-administration of long-acting glucagon derivative and oral diabetes drug in mice with high-fat-diet-induced obesity; conditions: 28 days; long-acting glucagon derivative 1.2 nmol/kg once every 2 days; Sitagliptin 49.2 mg/kg, Empagliflozin 12.3 mg/kg once a day; SAXENDA 50 nmol/kg twice a day
Experimental: as §1
as §2, with “days),” for “days), and”, “day), Group 5: administered with an SGLT-2 inhibitor (Empagliflozin, 12.3 mg/kg, injection once a day), Group 6: co-administered with Sitagliptin (49.2 mg/kg, injection once a day) and the long-acting glucagon derivative (1.2 nmol/kg, injection once every 2 days), and Group 7: Empagliflozin (12.3 mg/kg, injection once a day) and the long-acting glucagon derivative (1.2 nmol/kg, injection once every 2 days). The long-acting glucagon derivative used in this experiment was the long-acting derivative according to Example 5.” for “day).”
as §3, §4

[3] = test system: Mice with high-fat-diet-induced obesity; experiment: Experimental Example 3: long-acting glucagon derivative and GLP-1 analogs, alone and co-administered, in mice with high-fat-diet-induced obesity; conditions: 28 days; glucagon long-acting derivative 2.0 nmol/kg once every 2 days; SAXENDA 50 nmol/kg twice a day; OZEMPIC 20.5 nmol/kg, TRULICITY 2.7 nmol/kg once every 2 days
Experimental: as §1, with “Light was” for “Lights were”, “A.M. […]” for “A. M.”
The experiment was terminated on the 28th day, and changes in body weight of the mice in each group were measured at 2-day intervals during the progress of the experiment. Upon termination of the experiment, blood lipid levels, weights of fat, and blood glucose levels were measured. […]

N[C@@H](CC(=O)N1CCn2c(nnc2C(F)(F)F)C1)Cc1cc(F)c(F)cc1F [Sitagliptin]
change in body weight compared to body weight before administration [1]: −0.1% | weight loss (change in body weight) [2]: −0.1%

OC[C@H]1O[C@@H](c2ccc(Cl)c(Cc3ccc(O[C@H]4CCOC4)cc3)c2)[C@H](O)[C@@H](O)[C@@H]1O [Empagliflozin]
weight loss (change in body weight) [2]: −10.4%

SAXENDA®: GLP-1 analog obesity drug (HAEGTFTSDVSSYLEGQAAKEFIAWLVRGRG; chains of the INN, looked up)
change in body weight compared to body weight before administration [1]: −16.3% | weight loss (change in body weight) [2]: −16.3% | weight loss compared to the body weight before administration [3]: −18.10%

TRULICITY®: long-acting GLP-1 analog
weight loss compared to the body weight before administration [3]: −3.81%
